Assay results from patent US20070099917A1, “Novel inhibitors and methods for their preparation” (THE WALTER AND ELIZA HALL INSTITUTE OF MEDICAL RESEARCH, priority 2005, published 2007).

Assay: Hydrolysis of FMS derivative in mouse plasma
Type: in vitro ADME
Conditions: 100 μM in mouse plasma at 37° C., after 28 hours, RP-HPLC
Method: Mouse plasma was incubated with 100 μM FMS-6-amino-4-(3-chlorophenylamino)quinazoline at 37° C. Samples were taken and analysed on RP-HPLC as described above in Example 1b) ii). The relative amounts of the two peaks were calculated. Chromatograms of samples taken at 0 (see FIG. 5), 5 (see FIG. 6) and 22 (see FIG. 7) hours show the relative change in the amount of the two compounds (i.e. FMS-6-amino-4-(3-chlorophenylamino)quinazoline vs 6-amino-4-(3-chlorophenylamino)quinazoline) in the plasma after incubation at 37° C.

For O=C(Nc1ccc2ncnc(Nc3cccc(Cl)c3)c2c1)OCC1c2ccccc2-c2ccc(S(=O)(=O)O)cc21 (stereo not shown) [FMS-6-amino-4-(3-chlorophenylamino)quinazoline], the “Hydrolysis to 6-amino-4-(3-chlorophenylamino)quinazoline in mouse plasma” value was “almost completely hydrolysed”.
